How the values were obtained:
[1] = system: normal human epidermal keratinocytes (NHEK); test: ROS production after UV irradiation (2,7-DCDHF-DA fluorescence); type: cell-based
Method: (§1) The extent to which the substances of the invention are able to exert a protective effect on normal human epidermal keratinocytes (NHEK) exposed to UV irradiation was examined.
(§2) For this, corresponding investigations were carried out of biomarkers for reactive oxygen species (ROS), quantified with 2,7-dichlorodihydrofluorescein diacetate, and DNA damage and repair, quantified by the Comet assay.
The intracellular formation of reactive […] species (ROS) is inter alia a factor that leads to damage of cellular DNA by UV radiation.
96-well plates were seeded with keratinocytes, which were cultured for 24 hours in culture medium and then for a further 24 hours in assay medium. The medium was then replaced by a test medium containing the test compounds or the references (100 μM vitamin E and 10 μM EGCG) or in which they were absent (irradiated control) and the cells were preincubated for 24 hours. After preincubation, the medium was removed and replaced by assay medium, the fluorescent probe (2,7-dichlorodihydrofluorescein diacetate (10 μM 2,7-DCDHF-DA in assay medium) was added and the cells were incubated at 37° C. for 30 minutes. The cells were then washed with PBS solution and irradiated with 100 mJ/cm^2 UVB+UVA (+0.7 J/cm^2) without compounds or references. The lamp used was a SOL500 solar simulator with H2 filter (Dr. Honle, AG). After irradiation, the cells were incubated for 30 minutes. An unirradiated control and the conditions without sample (background noise) were carried out in parallel.
All experimental conditions were carried out in triplicate.
The emitted intensity of fluorescence (ex=485 nm, em=538 nm) was measured using an EnVision® (Perkin Elmer) microplate reader.
The intensity of fluorescence of the metabolized sample (DCF) was proportional to the formation of ROS. ROS production was therefore expressed as the relative intensity of fluorescence.

[2] = system: normal human epidermal keratinocytes (NHEK); test: DNA damage and repair after UV irradiation (Comet assay); type: cell-based
Method: as §1, §2
6-well plates were seeded with the keratinocytes, which were incubated for 48 hours in culture medium, with the medium replenished after 24 hours. The medium was then replaced by culture medium containing the test compounds or the references (0.3 mM control) or in which they were absent (control) and the cells were incubated for 24 hours. After the preincubation, the culture medium was removed and assay medium again added and the cells were irradiated with 250 mJ/cm^2 UVB+UVA (+1.6 J/cm^2) in the absence of the compounds. The lamp used was a SOL500 solar simulator (Dr. Hönle, AG) fitted with an H2 filter. An unirradiated control condition was carried out in parallel. All experimental conditions were carried out in duplicate.
At the end of the irradiation, the culture supernatants were discarded and the cells were washed with phosphate-buffered saline (PBS) prior to analysis.
The cells were trypsinized and counted and the supernatant was removed after centrifugation. The cells were then washed with PBS solution and suspended in the same PBS solution so as to achieve a cell concentration of 1×10^5 cells/ml. The cell suspension was then mixed with molten (37° C.) 1% agarose gel of low melting point and pipetted onto the Comet microscope slides (duplicate analysis for each condition). For cell lysis, the microscope slides were immersed in a freshly prepared alkaline solution (200 mM NaOH containing 1 mM EDTA, pH>13) on an electrophoresis support. The gel electrophoresis was carried out at 21 volts for 30 minutes. The Comet microscope slides were washed twice with water, each time for 5 minutes, then washed with 70% ethanol for 5 minutes and air-dried at 37° C. for 15 minutes.
After the electrophoresis, each dried sample was stained with a DNA intercalating fluorescent dye (SYBR Green solution). The cells were then observed in epifluorescence using an automated IN Cell Analyzer™ 2200 microscope image analyser (GE Healthcare) (X10 objective lens). On excitation (ex 494 nm, em 524 nm), the DNA-bound SYBR® Green emits green light. […] If DNA damage has occurred, the alkali treatment causes the DNA to […], releasing fragments that migrate outside the cell when exposed to an electric field. The negatively charged DNA migrates to the anode, the extrusion length being proportional to the relaxation of the supercoiled structure, which is an indicator of damage. When alkaline electrophoresis conditions are employed, the distribution of the DNA between the tail and comet head can be used to determine the extent of the DNA damage. The images of the cells were analysed with OpenComet in conjunction with ImageJ software. In each replicate of the analysis, a minimum value of 500 events was analysed.

sun-stressed skin [3] = test: In-vivo study: skin colour measurement (L*, ITA°) on outside of forearm; parameters: species or system human; settings: formulation applied twice daily to forearm; for ΔITA° W2 − W0 / ΔL* W2 − W0: after 2 weeks; for ΔITA° W4 − W0 / ΔL* W4 − W0: after 4 weeks; for ΔITA° W8 − W0 / ΔL* W8 − W0: after 8 weeks
Method: (§3) For the in-vivo study, 24 test subjects (male and female) with sun-stressed skin were recruited. In order to ensure sun-stressed skin, this study was carried out in the period from September to November. […] The test subjects received either two different test formulations, which they applied to one forearm each, or one test formulation. which was applied to one forearm with the second forearm remaining untreated (control). The test formulations were a vehicle and a formulation containing 0.1% of hydroxybutyroyl phytosphingosine (hydroxybutyroyl PS). The various test combinations were assigned to the test subjects randomly. The test subjects applied the test formulations for a period of 8 weeks twice daily to the inside and outside of in each case one forearm. The following measurements on the forearms were carried out before the start of application and after two, four and eight weeks: • 1. Colour measurement: A colorimeter probe (Skin-Colorimeter CL 400, Courage & Khazaka, Cologne) was used to measure the parameters L* and ITA° on the outside of the forearm. L* describes the black/white value of the skin, ITA° describes the skin tone. When skin becomes lighter, both values show an increase. • 2. Skin roughness: This parameter was determined by means of a special camera on the inside of the forearm (Visioscan VC 98, Courage & Khazaka). This camera records a digital black-and-white image of the skin. The grayscale distribution of the image can be used to determine the skin roughness. • 3. Density of the dermis: The density of the dermis was determined by ultrasound on the outside of the forearm (SkinLab Combo, Cortex Technologies, Denmark). For this, a special probe transmits an ultrasound signal to the skin and records the reflection. This reflection can be used to determine a value for the skin density. A reduced skin density is shown in particular by areas of skin that have been very strongly exposed to sunlight.

sun-stressed skin [4] = test: In-vivo study: skin roughness on inside of forearm (Visioscan VC 98); parameters: species or system human; unit not given here; settings: formulation applied twice daily to forearm; for Decrease in roughness W2 − W0: after 2 weeks; for Decrease in roughness W4 − W0: after 4 weeks; for Decrease in roughness W8 − W0: after 8 weeks
Method: as §3

sun-stressed skin [5] = test: In-vivo study: density of the dermis by ultrasound on outside of forearm; parameters: species or system human; unit not given here; settings: formulation applied twice daily to forearm; for Δ skin density W2 − W0: after 2 weeks; for Δ skin density W4 − W0: after 4 weeks; for Δ skin density W8 − W0: after 8 weeks
Method: as §3

[6] = 10 μM, 24 h preincubation, 100 mJ/cm^2 UVB+UVA
[7] = 10 μM, 24 h preincubation, 250 mJ/cm^2 UVB+UVA
[8] = 5 μM, 24 h preincubation, 100 mJ/cm^2 UVB+UVA

Compound | protective effect against the formation of ROS [1, 6] | protective effect against DNA damage after UV irradiation [2, 7] | ΔITA° W2 − W0 (sun-stressed skin [3]) | ΔL* W2 − W0 (sun-stressed skin [3]) | ΔITA° W4 − W0 (sun-stressed skin [3]) | ΔL* W4 − W0 (sun-stressed skin [3]) | ΔITA° W8 − W0 (sun-stressed skin [3]) | ΔL* W8 − W0 (sun-stressed skin [3]) | Decrease in roughness W2 − W0 (sun-stressed skin [4]) | Decrease in roughness W4 − W0 (sun-stressed skin [4]) | Decrease in roughness W8 − W0 (sun-stressed skin [4]) | Δ skin density W2 − W0 (sun-stressed skin [5]) | Δ skin density W4 − W0 (sun-stressed skin [5]) | Δ skin density W8 − W0 (sun-stressed skin [5]) | protective effect against the formation of ROS [1, 8] | protective effect against DNA damage after UV irradiation ([2]; 5 μM, 24 h preincubation, 250 mJ/cm^2 UVB+UVA) | protective effect against DNA damage after UV irradiation ([2]; 2 μM, 24 h preincubation, 250 mJ/cm^2 UVB+UVA) | protective effect against the formation of ROS ([1]; concentration not stated (FIG. 1; with increasing concentration)) | protective effect against DNA damage after UV irradiation ([2]; concentration not stated (FIG. 2)) | protective effect against DNA damage after UV irradiation ([2]; reference 0.3 mM, 250 mJ/cm^2 UVB+UVA)
3-Hydroxypropioyl phytosphingosine [Ex 1c] | 5% | 13% | 2.41 | 0.58 | 4.89 | 1.92 | 8.67 | 2.55 | −1.20 | −5.55 | −6.21 | .82 | 0.98 | 0.82 |  |  |  |  |  | 
6-Hydroxyhexanoyl phytosphingosine [Ex 1b] |  |  | 5.11 | 1.38 | 7.53 | 2.51 | 12.24 | 4.38 | −6.20 | −14.36 | −15.88 | 3.33 | 4.24 | 4.63 |  |  |  |  |  | 
CCCCCCCCCCCCCCC[C@@H](O)[C@H](CO)NC(=O)C(O)C(C)(C)CO (some centres unmarked) [Ex 5b, 2-hydroxy-3,3-dimethyl-hydroxybutyroyl sphinganine] |  |  | 3.54 | 0.92 | 6.21 | 2.02 | 10.52 | 3.28 | −3.2 | −12.34 | −13.63 | 2.23 | 3.25 | 3.64 | 22% | 24% |  |  |  | 
CCCCCCCCCCCCCCC(O)C(O)C(CO)NC(=O)C(O)C(C)(C)CO (centres unmarked) [Example 5, 2-hydroxy-3,3-dimethyl-hydroxybutyroyl phytosphingosine] |  |  |  |  |  |  |  |  |  |  |  |  |  |  | 38% |  | 39% |  |  | 
CCCCCCCCCCCCCC[C@@H](O)[C@@H](O)[C@@H](N)CO [phytosphingosine] |  |  |  |  |  |  |  |  |  |  |  |  |  |  |  |  |  | No significant protective effect | cannot be demonstrated | 
O=S(=O)(O)c1cc(O)c(O)c(S(=O)(=O)O)c1 [tiron] |  |  |  |  |  |  |  |  |  |  |  |  |  |  |  |  |  |  |  | approximately 60%
Ceramide 3 [Cer 3] | 4% | 12% | 2.34 | 0.60 | 5.21 | 1.82 | 8.79 | 2.61 | 0.05 | −5.12 | −4.66 | 1.20 | 1.50 | 1.80 |  |  |  |  |  | 

Source: patent publication US20240092728A1, “HYDROXY-SUBSTITUTED SPHINGOLIPIDS” (Evonik Operations GmbH, priority 2021, published 2024)
